Source: patent US7507727B2, “Substituted quinobenzoxazine analogs and methods of using thereof” (Cylene Pharmaceuticals, Inc., priority 2003, dated 2009)
Where two headings read alike, the source gives them in different places.

Tests used:
HeLa cells = test: MTS cell proliferation and/or cytotoxicity assay; type: cell-based, Human; details: Homo sapiens, HeLa
Summary of the method: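 HeLa cells seeded at 4,500 cells/well, exposed to compounds from day 1 for 3 days at 37 °C, 5% CO2. Viability by MTS/PMS (20:1) with 4 h incubation, absorbance at 490 nm. Values are concentrations giving 50% antiproliferative response.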

[1] = target: c-Myc template DNA (c-myc quadruplex); test: Quadruplex binding / stop assay (Taq polymerase arrest, capillary electrophoresis)
[2] = 72 h, concentration at which 50% of antiproliferative cell response is seen, 3 days incubation, read-out: MTS Data Hella
[3] = read-out: Stop Data c-Myc μM, concentration at which 50% of the DNA was arrested (arrested:full-length 1:1)
[4] = HeLa cells, MTS, read-out: Hela MTS
[5] = read-out: S DATA, Table 1D, stop assay data

IC50 [1, 3]	IC50 [1, 5]	Compound	IC50 (HeLa cells; [2])	IC50 (HeLa cells; [4])
1.75 µM	–	CCN(CC)C1CCN(c2c(F)cc3c(=O)c(C(=O)NCCC4CCCN4C)cn4c3c2Oc2cc3ccccc3cc2-4)C1 (stereo not drawn) [compound 105]	2800 nM	–
–	0.375 µM	CN(C)CCCCNC(=O)c1cn2c3c(c(NCCN4CCCC4)ccc3c1=O)Oc1cc3ccccc3cc1-2 [compound 1520]	–	200 nM
0.375 µM	–	CN1CCCC1CCNc1c(F)cc2c(=O)c(C(=O)NCCN3CCOCC3)cn3c4cc5c(cc4oc1c23)c(=O)c1ccccc15 (stereo not drawn) [compound 517]	2200 nM	–
–	0.375 µM	CC1(C)CC(NC(=O)c2cn3c4c(c(N5CCC(N)C5)ccc4c2=O)Oc2cc4ccccc4cc2-3)CC(C)(C)N1 (stereo not drawn) [compound 1558]	–	240 nM
0.75 µM	–	CN(C)/C=N/CCCNC(=O)c1cn2c3c(c(N4CC[C@@H](N)C4)c(F)cc3c1=O)Oc1cc3ccccc3cc1-2 [compound 371]	3500 nM	–
0.18 µM	–	CN1CCCC1CCNC(=O)c1cn2c3cc4oc5cc([N+](=O)[O-])ccc5[nH]c4cc3oc3c(NCCN4CCCC4)c(F)cc(c1=O)c32 (stereo not drawn) [compound 570]	6800 nM	–
0.75 µM	–	O=C(NCCCn1ccnc1)c1cn2c3c(c(NCCN4CCCC4)c(F)cc3c1=O)Oc1cc3c(cc1-2)oc1ccccc13 [compound 368]	3600 nM	–
0.18 µM	–	CN(C)CCCCNC(=O)c1cn2c3cc4c(cc3oc3c(N5CC[C@H](N)C5)c(F)cc(c1=O)c32)c(=O)c1ccccc14 [compound 580]	300 nM	–
0.375 µM	–	CN(C)CCCCNC(=O)c1cn2c3c(c(N4CC[C@@H](NC(=O)CCNCCCn5ccnc5)C4)c(F)cc3c1=O)Oc1cc3c(cc1-2)oc1ccccc13 [compound 500]	5600 nM	–
0.75 µM	–	CC(C)(C)OC(=O)NC1CCN(c2c(F)cc3c(=O)c(C(=O)NCCN4CCCC4)cn4c3c2Oc2cc3c(cc2-4)oc2ccccc23)C1 (stereo not drawn) [compound 384]	370 nM	–
0.5 µM	–	CN1CCN(CCCNc2c(F)cc3c(=O)c(C(=O)NCCCn4ccnc4)cn4c3c2Oc2cc3c(cc2-4)oc2ccccc23)CC1 [compound 481]	3600 nM	–
1 µM	–	O=C(CCN1CCCCC1)N[C@@H]1CCN(c2c(F)cc3c(=O)c(C(=O)NCCN4CCCC4)cn4c3c2Oc2cc3c(cc2-4)oc2ccccc23)C1 [compound 308]	3100 nM	–
–	0.375 µM	CN(C)CC(C)(C)CNC(=O)c1cn2c3c(c(N4CC5CCCNC5C4)c(F)cc3c1=O)Oc1cc3ccccc3cc1-2 (stereo not drawn) [compound 1644]	–	650 nM
0.25 µM	–	CN1CCN(CCCNC(=O)c2cn3c4c(c(N5CCC(N)C5)c(F)cc4c2=O)Oc2cc4c(cc2-3)oc2ccccc24)CC1 (stereo not drawn) [compound 1467]	350 nM	–
0.375 µM	–	NC(N)=NCCCNC(=O)c1cn2c3c(c(N4CC[C@@H](N)C4)c(F)cc3c1=O)Oc1cc3ccccc3cc1-2 [compound 512]	3100 nM	–
–	0.375 µM	CN1CCCC1CCNC(=O)c1cn2c3c(c(NCCCN(CCO)CCO)c(F)cc3c1=O)Oc1cc3ccccc3cc1-2 (stereo not drawn) [compound 1686]	–	400 nM
0.375 µM	–	CN1CCCC1CCNC(=O)c1cn2c3cc4c(cc3oc3c(NCCC5CCCN5C)c(F)cc(c1=O)c32)c(=O)c1ccccc14 (stereo not drawn) [compound 514]	2900 nM	–
0.5 µM	–	O=C(CN1CCCCC1)N[C@@H]1CCN(c2c(F)cc3c(=O)c(C(=O)NCCN4CCCC4)cn4c3c2Oc2cc3c(cc2-4)oc2ccccc23)C1 [compound 482]	3400 nM	–
3 µM	–	O=C(NCCN1CCCC1)c1cn2c3c(c(NCC4CCCO4)c(F)cc3c1=O)Oc1cc3ccccc3cc1-2 (stereo not drawn) [compound 31]	1400 nM	–
1.75 µM	–	CN1CCCC1CCNC(=O)c1cn2c3c(c(N4CC[C@@H](N)C4)c(F)cc3c1=O)Oc1c-2ccc2ccccc12 (stereo partly drawn) [compound 110]	250 nM	–
–	0.75 µM	CN1CCCC1CCNC(=O)c1cn2c3c(c(NCC(O)c4ccccc4)c(F)cc3c1=O)Oc1cc3ccccc3cc1-2 (stereo not drawn) [compound 1676]	–	190 nM
–	0.75 µM	NC1CCN(c2ccc3c(=O)c(C(=O)NCCCN4CCOCC4)cn4c3c2Oc2cc3ccccc3cc2-4)C1 (stereo not drawn) [compound 1557]	–	1500 nM
2.5 µM	–	O=C(N[C@H]1C(O)O[C@H](CO)[C@H](O)[C@@H]1O)c1cn2c3c(c(NCCCN4CCOCC4)c(F)cc3c1=O)Oc1cc3c(cc1-2)oc1ccccc13 (stereo partly drawn) [compound 37]	2800 nM	–
0.18 µM	–	NC(N)=NCCCCNC(=O)c1cn2c3c(c(N4CC[C@@H](N)C4)c(F)cc3c1=O)Oc1cc3ccccc3cc1-2 [compound 578]	580 nM	–
3 µM	–	CN1CCCC1CCNC(=O)c1cn2c3c(c(N4CC[C@H](N)C4)c(F)cc3c1=O)Oc1ccccc1-2 (stereo partly drawn) [compound 36]	160 nM	–

IC50 [1, 3]	IC50 [1, 5]	Compound	IC50 (HeLa cells; [2])	IC50 (HeLa cells; [4])
0.75 µM	–	CN(C)CCCCNc1c(F)cc2c(=O)c(C(=O)NCCC3CCCN3C)cn3c2c1Oc1cc2c(cc1-3)oc1ccccc12 (stereo not drawn) [compound 366]	3700 nM	–
0.375 µM	–	CN1CCN(CCCNC(=O)c2cn3c4c(c(N5CC[C@@H](NC(=O)CCN6CCCCC6)C5)c(F)cc4c2=O)Oc2cc4c(cc2-3)oc2ccccc24)CC1 [compound 508]	3200 nM	–
–	0.75 µM	CN1CCCC1CCNC(=O)c1cn2c3c(c(NCCc4ccc(O)cc4)c(F)cc3c1=O)Oc1cc3ccccc3cc1-2 (stereo not drawn) [compound 1681]	–	2100 nM
0.75 µM	–	CCN(CC)CCCC(C)NC(=O)c1cn2c3c(c(N4CC5CCCNC5C4)c(F)cc3c1=O)Oc1cc3ccccc3cc1-2 (stereo not drawn) [compound 385]	360 nM	–
0.375 µM	–	O=C(CN1CCCC1)N[C@@H]1CCN(c2c(F)cc3c(=O)c(C(=O)NCCN4CCCC4)cn4c3c2Oc2cc3c(cc2-4)oc2ccccc23)C1 [compound 506]	3400 nM	–
–	0.75 µM	CCN(CC)CCCC(C)NC(=O)c1cn2c3c(c(N4CC5CCCNC5C4)c(F)cc3c1=O)Oc1cc3ccccc3cc1-2 (stereo not drawn) [compound 1727]	–	360 nM
0.375 µM	–	CN(C)CCCCNC(=O)c1cn2c3c(c(N4CC5CCCNC5C4)c(F)cc3c1=O)Oc1cc3ccccc3cc1-2 (stereo not drawn) [compound 548]	100 nM	–
3 µM	–	CCN(CC)CCCC(C)NC(=O)c1cn2c3c(c(N4CCC(c5cnccn5)C4)c(F)cc3c1=O)Oc1cc3ccccc3cc1-2 (stereo not drawn) [compound 27]	3800 nM	–
0.375 µM	–	N[C@H]1CCN(c2c(F)cc3c(=O)c(C(=O)NCCCN4CCOCC4)cn4c5cc6c(cc5oc2c34)c(=O)c2ccccc26)C1 [compound 511]	3100 nM	–
0.375 µM	–	CN1CCN(CCCNC(=O)c2cn3c4cc5c(cc4oc4c(N6CC[C@H](N)C6)c(F)cc(c2=O)c43)c(=O)c2ccccc25)CC1 [compound 520]	1900 nM	–
0.25 µM	–	CN1CCCC1CCNC(=O)c1cn2c3c(c(N4CC[C@@H](N)C4)c(F)cc3c1=O)Oc1cc3ccccc3cc1-2 (stereo partly drawn) [compound 564]	290 nM	–
3 µM	–	CCN(CC)CCCC(C)NC(=O)c1cn2c3c(c(N4CCC(c5cnccn5)C4)c(F)cc3c1=O)Oc1ccccc1-2 (stereo not drawn) [compound 28]	2500 nM	–
1.75 µM	–	N[C@H]1CCN(c2c(F)cc3c(=O)c(C(=O)NCCN4CCCC4)cn4c3c2Oc2ccccc2-4)C1 [compound 109]	310 nM	–
3 µM	–	CN1CCCC1CCNC(=O)c1cn2c3c(c(NC[C@H]4CCCO4)c(F)cc3c1=O)Oc1cc3ccccc3cc1-2 (stereo partly drawn) [compound 34]	280 nM	–
0.75 µM	–	N[C@@H]1CCN(c2c(F)cc3c(=O)c(C(=O)NCCCN4CCOCC4)cn4c3c2Oc2cc3c(cc2-4)oc2ccccc23)C1 [compound 375]	2700 nM	–
0.75 µM	–	NC1CCN(c2c(F)cc3c(=O)c(C(=O)NCCc4cnc[nH]4)cn4c3c2Oc2cc3ccccc3cc2-4)C1 (stereo not drawn) [compound 379]	1900 nM	–
–	0.62 µM	CN1CCCC1CCNC(=O)c1cn2c3c(c(N4CCC(N)C4)c(F)cc3c1=O)Nc1cc3ccccc3cc1-2 (stereo not drawn) [compound 1645]	–	3300 nM
1 µM	–	COc1ccc(CCNc2c(F)cc3c(=O)c(C(=O)NCCC4CCCN4C)cn4c3c2Oc2cc3ccccc3cc2-4)cc1OC (stereo not drawn) [compound 310]	2300 nM	–
0.375 µM	–	CN(C)CCCCNc1c(F)cc2c(=O)c(C(=O)NCCN3CCCC3)cn3c4cc5c(cc4oc1c23)c(=O)c1ccccc15 [compound 515]	2500 nM	–
0.375 µM	–	CN(C)CCCCNC(=O)c1cn2c3c(c(N4CC[C@@H](NC(=O)CCN5CCCCC5)C4)c(F)cc3c1=O)Oc1cc3c(cc1-2)oc1ccccc13 [compound 507]	3300 nM	–
0.18 µM	–	CN(C)CCCCNC(=O)c1cn2c3cc4c(=O)c5ccccc5c(=O)c4cc3oc3c(NCCN4CCCC4)c(F)cc(c1=O)c32 [compound 574]	4000 nM	–
0.32 µM	–	O=C(NCCC1CCCN1)c1cn2c3c(c(NCCCN4CCOCC4)c(F)cc3c1=O)Oc1cc3c(cc1-2)oc1ccccc13 (stereo not drawn) [compound 562]	850 nM	–
0.375 µM	–	CN1CCCC1CCNc1c(F)cc2c(=O)c(C(=O)NCCCN3CCOCC3)cn3c4cc5c(cc4oc1c23)c(=O)c1ccccc15 (stereo not drawn) [compound 523]	1600 nM	–
0.75 µM	–	CC(=O)N[C@@H]1CCN(c2c(F)cc3c(=O)c(C(=O)NCCCCN(C)C)cn4c3c2Oc2cc3c(cc2-4)oc2ccccc23)C1 [compound 374]	3300 nM	–
0.75 µM	–	CN1CCN(CCCNC(=O)c2cn3c4c(c(N5CCC(NC(=O)OC(C)(C)C)C5)c(F)cc4c2=O)Oc2cc4c(cc2-3)oc2ccccc24)CC1 (stereo not drawn) [compound 383]	370 nM	–

Compound	IC50 [1, 3]	IC50 [1, 5]	IC50 (HeLa cells; [2])	IC50 (HeLa cells; [4])
CN1CCCC1CCNC(=O)c1cn2c3c(c(N4CCC(c5cnccn5)C4)c(F)cc3c1=O)Oc1cc3ccccc3cc1-2 (stereo not drawn) [compound 1512]	–	0.78 µM	–	3100 nM
